Measurements: PubChem BioAssay AID1963960 (Molecular Pharmacology Branch, DTP, NCI, 2024)

Test system: MDA-MB-468 spheroids with HUVEC/MSC, viability
Assay: Anticancer human tumor MDA-MB-468 cell line growth inhibition [PI3K];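 also: spheroids exposed to agents for seven days before readout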
Details: for IC50: curve of first compound; for viability, T/C: stronger effect = lower value; active = viability on the fitted dose curve at most 10% of control; inactive = the rest
Source text: Combinatorial screen of targeted agents with the PI3K inhibitors inavolisib, alpelisib, duvelisib, and copanlisib in multi-cell type tumor spheroids
A high-throughput screen of multi-cell type tumor spheroids was designed to identify active combinations of targeted small molecules and PI3K pathway inhibitors. Complex spheroids include a stromal component modeled by human endothelial cells (HUVEC) and fibroblasts modeled by human mesenchymal stem cells (MSCs). The concentration ranges selected for each drug and investigational agent were based upon clinically achievable concentrations if the clinical Cmax of the agent was known.
Compounds. The drugs and investigational agents: inavolisib (NSC800729), alpelisib (NSC765974), duvelisib (NSC772469), copanlisib (NSC816437), ipatasertib (NSC767898), afuresertib (NSC778305), talazoparib (NSC767125), sapanisertib (NSC764658), selumetinib (NSC741078), tovorafenib (DAY101, NSC766906), vemurafenib (NSC761431), ravoxertinib (NSC781343), sotorasib (NSC818433), MRTX1133 (NSC 836407), abemaciclib (NSC 768073), palbociclib (NSC758247), venetoclax (NSC 766270), SY5609 (NSC837396), enzalutamide (NSC755605), and darolutamide (NSC825331), were obtained from the National Cancer Institute (NCI) Developmental Therapeutics Program Chemical Repository. The FDA-approved anticancer drug set is available from the NCI Developmental Therapeutics Program. […] The stock solutions were prepared in dimethyl sulfoxide (DMSO, Sigma-Aldrich, St. Louis, MO, cat. D2650) at 800-fold the tested concentration and stored at -70 degrees C prior to their use. All drugs and investigational agents were tested over a range starting from a high concentration at or near the clinical Cmax and decreasing in half-log increments. If the clinical Cmax for an agent had not been determined, the highest concentration tested was 10 microM.
Cell Culture. All cells were maintained in an incubator at 37 degrees C and 5% CO2 with 95% humidity. The PDC lines were cultured according to standard operating procedures established by the NCI PDMR (https://pdmr.cancer.gov/sops/default.htm). All PDCs were thawed and cultured in Matrigel-coated flasks prepared with a working solution of 1X Ham's F-12 nutrient mix, without supplementation (Invitrogen, Waltham, MA, cat. 11765054), 100 U/mL penicillin-streptomycin (Invitrogen, cat. 15140122), and 2.5% Matrigel (Corning Inc., Corning, NY, cat. 354248) for the first three passages. The 354836-022-R-J1-PDC, 475296-252-R-J1-PDC, and 997726-040-R-J2-PDC lines were cultured in 6A media, which includes advanced DMEM/F-12 (Thermo Fisher Scientific, cat. 12634028), 10 mM HEPES (Thermo Fisher Scientific, cat. 15630080), 1X GlutaMAX supplement (Thermo Fisher Scientific, cat. 35050061), 0.1 mg/mL primocin (InvivoGen, San Diego, CA, cat. ant-pm-2), 10% defined fetal bovine serum, heat inactivated (HyClone Laboratories Inc., Logan, UT, cat. SH30070.03HI), 50% L-WRN conditioned media (ATCC, cat. CRL-3276), 1.25 mM N-Acetyl-L-cysteine (Sigma-Aldrich, cat. A9165), 10 mM nicotinamide (Sigma-Aldrich, cat. N0636), 1X B-27 supplement (Thermo Fisher Scientific, cat. 17504044), 1X N-2 supplement (Thermo Fisher Scientific, cat. 17502048), and 10 microM Y-27632 dihydrochloride (Tocris Bioscience, Bristol, United Kingdom, cat. 1254). The 624824-186-R-J2-PDC line was cultured in 6C/Colon 1B media, which includes all 6A media components plus 50 ng/mL human EGF recombinant protein (Thermo Fisher Scientific, cat. PHG0311). […]

[1] = second compound 0.00316 µM, first compound 0.0316 µM
[2] = second compound 0.00316 µM, first compound 0.1 µM
[3] = second compound 0.01 µM, first compound 0.0316 µM
[4] = second compound 0.01 µM, first compound 0.1 µM
[5] = second compound 0.0316 µM, first compound 0.0316 µM
[6] = second compound 0.0316 µM, first compound 0.1 µM
[7] = second compound 0.1 µM, first compound 0.0316 µM
[8] = second compound 0.1 µM, first compound 0.1 µM
[9] = second compound 0.316 µM, first compound 0.0316 µM
[10] = second compound 0.316 µM, first compound 0.1 µM
[11] = second compound 1 µM, first compound 0.0316 µM
[12] = second compound 1 µM, first compound 0.1 µM

CC(=O)c1c(C)c2cnc(Nc3ccc(N4CCNCC4)cn3)nc2n(C2CCCC2)c1=O + CC(Nc1ccc2c(c1)OCCn1cc(N3C(=O)OCC3C(F)F)nc1-2)C(N)=O
> 0.1 µM: IC50 (second compound 0.00316 µM) | IC50 (second compound 0.01 µM) | IC50 (second compound 0.0316 µM) | IC50 (second compound 0.1 µM) | IC50 (second compound 0.316 µM) | IC50 (second compound 1 µM)
inactive: viability, T/C (second compound 0.00316 µM, first compound 0.000316 µM) 96.1% | viability, T/C (second compound 0.00316 µM, first compound 0.001 µM) 95.3% | viability, T/C (second compound 0.00316 µM, first compound 0.00316 µM) 96.8% | viability, T/C (second compound 0.00316 µM, first compound 0.01 µM) 102% | viability, T/C [1] 97.4% | viability, T/C [2] 89.9% | viability, T/C (second compound 0.01 µM, first compound 0.000316 µM) 105% | viability, T/C (second compound 0.01 µM, first compound 0.001 µM) 91% | viability, T/C (second compound 0.01 µM, first compound 0.00316 µM) 93.6% | viability, T/C (second compound 0.01 µM, first compound 0.01 µM) 110% | viability, T/C [3] 105% | viability, T/C [4] 97.1% | viability, T/C (second compound 0.0316 µM, first compound 0.000316 µM) 103% | viability, T/C (second compound 0.0316 µM, first compound 0.001 µM) 92.7% | viability, T/C (second compound 0.0316 µM, first compound 0.00316 µM) 89% | viability, T/C (second compound 0.0316 µM, first compound 0.01 µM) 89% | viability, T/C [5] 97% | viability, T/C [6] 79.3% | viability, T/C (second compound 0.1 µM, first compound 0.000316 µM) 86.5% | viability, T/C (second compound 0.1 µM, first compound 0.001 µM) 84.8% | viability, T/C (second compound 0.1 µM, first compound 0.00316 µM) 101% | viability, T/C (second compound 0.1 µM, first compound 0.01 µM) 88.4% | viability, T/C [7] 96% | viability, T/C [8] 89.2% | viability, T/C (second compound 0.316 µM, first compound 0.000316 µM) 89.5% | viability, T/C (second compound 0.316 µM, first compound 0.001 µM) 72.1% | viability, T/C (second compound 0.316 µM, first compound 0.00316 µM) 79.1% | viability, T/C (second compound 0.316 µM, first compound 0.01 µM) 87.5% | viability, T/C [9] 83.8% | viability, T/C [10] 84.1% | viability, T/C (second compound 1 µM, first compound 0.000316 µM) 84.1% | viability, T/C (second compound 1 µM, first compound 0.001 µM) 81.6% | viability, T/C (second compound 1 µM, first compound 0.00316 µM) 73% | viability, T/C (second compound 1 µM, first compound 0.01 µM) 90.6% | viability, T/C [11] 66.7% | viability, T/C [12] 82%

CNC(=O)c1ccc(N2C(=S)N(c3ccc(C#N)c(C(F)(F)F)c3)C(=O)C2(C)C)cc1F + CC(Nc1ccc2c(c1)OCCn1cc(N3C(=O)OCC3C(F)F)nc1-2)C(N)=O
> 10 µM: IC50 (second compound 0.00316 µM) | IC50 (second compound 0.01 µM) | IC50 (second compound 0.0316 µM) | IC50 (second compound 0.1 µM) | IC50 (second compound 0.316 µM) | IC50 (second compound 1 µM)
inactive: viability, T/C [1] 95.2% | viability, T/C [2] 94.6% | viability, T/C (second compound 0.00316 µM, first compound 0.316 µM) 94.9% | viability, T/C (second compound 0.00316 µM, first compound 1 µM) 98.9% | viability, T/C (second compound 0.00316 µM, first compound 3.16 µM) 94.3% | viability, T/C (second compound 0.00316 µM, first compound 10 µM) 76.7% | viability, T/C [3] 100% | viability, T/C [4] 107% | viability, T/C (second compound 0.01 µM, first compound 0.316 µM) 105% | viability, T/C (second compound 0.01 µM, first compound 1 µM) 107% | viability, T/C (second compound 0.01 µM, first compound 3.16 µM) 82.3% | viability, T/C (second compound 0.01 µM, first compound 10 µM) 76.5% | viability, T/C [5] 90.7% | viability, T/C [6] 105% | viability, T/C (second compound 0.0316 µM, first compound 0.316 µM) 80.5% | viability, T/C (second compound 0.0316 µM, first compound 1 µM) 98.5% | viability, T/C (second compound 0.0316 µM, first compound 3.16 µM) 80.8% | viability, T/C (second compound 0.0316 µM, first compound 10 µM) 62.2% | viability, T/C [7] 85.9% | viability, T/C [8] 84.1% | viability, T/C (second compound 0.1 µM, first compound 0.316 µM) 83.5% | viability, T/C (second compound 0.1 µM, first compound 1 µM) 85.8% | viability, T/C (second compound 0.1 µM, first compound 3.16 µM) 82.1% | viability, T/C (second compound 0.1 µM, first compound 10 µM) 56.4% | viability, T/C [9] 95.6% | viability, T/C [10] 84.6% | viability, T/C (second compound 0.316 µM, first compound 0.316 µM) 75.8% | viability, T/C (second compound 0.316 µM, first compound 1 µM) 95.2% | viability, T/C (second compound 0.316 µM, first compound 3.16 µM) 94% | viability, T/C (second compound 0.316 µM, first compound 10 µM) 57.1% | viability, T/C [11] 88% | viability, T/C [12] 76.4% | viability, T/C (second compound 1 µM, first compound 0.316 µM) 79.9% | viability, T/C (second compound 1 µM, first compound 1 µM) 79.9% | viability, T/C (second compound 1 µM, first compound 3.16 µM) 73.3% | viability, T/C (second compound 1 µM, first compound 10 µM) 57.1%
